Assay results taken from patent US7517910B2, “Alkoxyphenylpropanoic acid derivatives” (Takeda Pharmaceutical Company Limited, priority 2004, dated 2009).
Counter-ions that a name gives are not always drawn.

Target: T1, human GPR40 (Homo sapiens, UniProt O14842)
T1 construct: expressed in transfected cells; host or cells: CHO cell line stably expressing human GPR40
Test: Determination of EC50 against human GPR40: change in intracellular calcium concentration by FLIPR in CHO cells stably expressing human GPR40
Format: cell-based
Conditions: CHO cell line stably expressing human GPR40; intracellular calcium change measured by FLIPR (Fluo3-AM); EC50 from dose-response curve; read-out: EC50 (receptor function modulating action on GPR40)
Procedure: Determination of EC50 of the compound of the present invention against human GPR40
For determination of EC50, CHO cell line that stably expressed human GPR40 was used. Unless otherwise indicated, the CHO cell line was cultured using α-MEM medium (Invitrogen) containing 10% fetal bovine serum (Invitrogen).
The cells cultured to nearly confluent were rinsed with PBS (Invitrogen) on the previous day of the assay, peeled off with 0.05% Trypsin.EDTA solution (Invitrogen) and recovered by centrifugation. The number of the obtained cells was counted, and the cells were diluted such that 3×10^5 cells were contained per 1 mL of the medium, dispensed to a black welled 96-well plate (coster) by 100 μL per well and cultured overnight in a CO2 incubator. Various test compounds were added to the CHO cells thus prepared, and the changes in the intracellular calcium concentration were measured using FLIPR (Molecular Device). The below-mentioned pre-treatment was applied to measure changes in the intracellular calcium concentration by FLIPR.
First, an assay buffer for adding a fluorescence dye Fluo3-AM (DOJIN) to the cells, or for washing the cells immediately before FLIPR assay was prepared. To a solution of HBSS (Invitrogen, 1000 mL) added 1 M HEPES (pH 7.4, DOJIN, 20 mL) (hereinafter HBSS/HEPES solution) was added a solution (10 mL) obtained by dissolving probenecid (Sigma, 710 mg) in 1 N NaOH (5 mL), and adding and mixing an HBSS/HEPES solution (5 mL), and the resulting solution was used as an assay buffer. Next, Fluo3-AM (50 μg) was dissolved in dimethyl sulfoxide (Wako, 21 μL), and an equivalent amount of 20% pluronic acid (Molecular Probes) was added and mixed. The solution was added to the assay buffer (10.6 mL) supplemented with fetal bovine serum (105 μL) to give a fluorescence dye solution. The medium of the CHO cells inoculated to the black welled 96-well plate on the previous day of assay was removed, the fluorescence dye solution was immediately dispensed by 100 μL per well and the cells were cultured in a CO2 incubator for 1 hr to allow intake of the fluorescence dye by the cells. The cells after the culture were washed with the above-mentioned assay buffer and set on FLIPR. The test compound was diluted with dimethylsulfoxide in advance, dispensed to a polypropylene 96-well plate (sample plate) by 2 μL, and cryopreserved at −20° C. To the thawed sample plate was added an assay buffer containing 0.015% CHAPS (DOJIN) by 198 μL, and simultaneously set on FLIPR together with the cell plate. After the aforementioned pre-treatment, changes in the intracellular calcium concentration upon addition of various test compounds was measured by FLIPR. Based on the results, a dose-response curve of each test compound was formed and EC50 was calculated.

T1 sequence (O14842 whole entry): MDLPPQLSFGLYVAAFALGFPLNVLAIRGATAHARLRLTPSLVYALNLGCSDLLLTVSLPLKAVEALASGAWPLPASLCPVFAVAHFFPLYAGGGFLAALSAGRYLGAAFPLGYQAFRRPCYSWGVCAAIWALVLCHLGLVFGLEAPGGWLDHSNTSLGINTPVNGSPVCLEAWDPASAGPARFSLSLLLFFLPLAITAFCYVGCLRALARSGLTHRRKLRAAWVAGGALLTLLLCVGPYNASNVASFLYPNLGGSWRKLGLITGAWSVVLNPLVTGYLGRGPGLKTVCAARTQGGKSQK

| Compound | EC50 [nM] |
| --- | --- |
| Cc1sc(C)c(-c2cccc(COc3ccc(CCC(=O)O)cc3)c2)c1C [Example 4, 3-(4-([3-(2,4,5-trimethyl-3-thienyl)benzyl]oxy}phenyl)propanoic acid] | < 10 |
| O=C(O)CCc1ccc(OCc2ccccc2-c2csc3ccccc23)cc1 [Example 10, 3-(4-{[2-(1-benzothiophen-3-yl)benzyl]oxy}phenyl)propanoic acid] | < 1000 |
| O=C(O)CCc1ccc(OCc2cccc(-c3ccc4c(ccn4Cc4ccccc4)c3)c2)cc1 [Example 20, 3-(4-([3-(1-benzyl-1H-indol-5-yl)benzyl]oxy}phenyl)propanoic acid] | < 100 |
| Cc1cc2ccccc2n1-c1cccc(COc2ccc(CCC(=O)O)cc2)c1 [Example 24, 3-(4-{[3-(2-methyl-1H-indol-1-yl)benzyl]oxy}phenyl)propanoic acid] | < 10 |
| O=C(O)CCc1ccc(OCc2cccc(N3CCOC(c4ccccc4)C3)c2)cc1 (centres unmarked) [Example 29, 3-(4-{[3-(2-phenylmorpholin-4-yl)benzyl]oxy}phenyl)propanoic acid] | < 100 |
| CC1CCc2ccccc2N1c1cccc(COc2ccc(CCC(=O)O)cc2)c1 (centres unmarked) [Example 40, 3-(4-{[3-(2-methyl-3,4-dihydroquinolin-1 (2H)-yl)benzyl]oxy}phenyl)propanoic acid] | < 10 |
| O=C(O)CCc1ccc(OCc2ccc(Cn3c(-c4ccccc4)cc4ccccc43)cc2)cc1 [Example 45, 3-[4-({4-[(2-phenyl-1H-indol-1-yl)methyl]benzyl}oxy)phenyl]propanoic acid] | < 100 |
| O=C(O)CCc1ccc(OCc2ccc(Cn3ccnc3-c3ccccc3)cc2)cc1 [Example 56, 3-[4-([4-[(2-phenyl-1H-imidazol-1-yl)methyl]benzyl]oxy)phenyl]propanoic acid] | < 1000 |
| CC(C)COc1ccc(COc2ccc(CCC(=O)O)cc2)cc1Cn1c(-c2ccccc2)cc2ccccc21 [Example 60, 3-[4-({4-isobutoxy-3-[(2-phenyl-1H-indol-1-yl)methyl]benzyl)oxy)phenyl]propanoic acid] | < 100 |
| O=C(O)CCc1ccc(OCc2ccc(Cn3nc(-c4ccc(C(F)(F)F)cc4)cc3CCc3ccccc3)cc2)cc1 [Example 65, 3-(4-{[4-({5-(2-phenylethyl)-3-[4-(trifluoromethyl)phenyl]-1H-pyrazol-1-yl}methyl)benzyl]oxy}phenyl)propanoic acid] | < 1000 |
| CC(C)COc1ccc(COc2ccc(CCC(=O)O)cc2)cc1CN1c2ccccc2CCC1C (centres unmarked) [Example 111, 3-[4-({4-isobutoxy-3-[(2-methyl-3,4-dihydroquinolin-1 (2H)-yl)methyl]benzyl}oxy)phenyl]propanoic acid] | < 1000 |
| Cc1cc(-c2ccccc2)n(Cc2ccc(COc3ccc(CCC(=O)O)cc3)cc2)n1 [Example 112, 3-[4-([4-[(3-methyl-5-phenyl-1H-pyrazol-1-yl)methyl]benzyl}oxy)phenyl]propanoic acid] | < 100 |
| CCOCCn1c(-c2ccccc2)c(-c2cccc(COc3ccc(CCC(=O)O)c(F)c3)c2)c2ccccc21 [Example 118, 3-[4-({3-[1-(2-ethoxyethyl)-2-phenyl-1H-indol-3-yl]benzyl}oxy)-2-fluorophenyl]propanoic acid] | < 100 |
| CC(C)(C)c1cc(COc2ccccc2)n(Cc2ccc(COc3ccc(CCC(=O)O)c(F)c3)cc2)n1 [Example 131, 3-{4-[(4-{[3-tert-butyl-5-(phenoxymethyl)-1H-pyrazol-1-yl]methyl}benzyl)oxy]-2-fluorophenyl}propanoic acid calcium salt] | < 100 |
| CC(C)(C)c1cc(OCc2ccccc2)n(Cc2ccc(COc3ccc(CCC(=O)O)c(F)c3)cc2)n1 [Example 133, 3-{4-[(4-([5-(benzyloxy)-3-tert-butyl-1H-pyrazol-1-yl]methyl)benzyl)oxy]-2-fluorophenyl}propanoic acid calcium salt] | < 100 |
| Cc1cccc(COc2cc(C(C)(C)C)nn2Cc2ccc(COc3ccc(CCC(=O)O)c(F)c3)cc2)n1 [Example 137, 3-(4-{[4-({3-tert-butyl-5-[(6-methylpyridin-2-yl)methoxy]-1H-pyrazol-1-yl}methyl)benzyl]oxy}-2-fluorophenyl)propanoic acid calcium salt] | < 100 |
| CC(C)(C)c1cc(-c2ccccc2)n(Cc2ccc(COc3ccc(CCC(=O)O)c(F)c3)cc2)n1 [Example 141, 3-[4-({4-[(3-tert-butyl-5-phenyl-1H-pyrazol-1-yl)methyl]benzyl)oxy)-2-fluorophenyl]propanoic acid] | < 100 |
